We go through one compound from patent publication US12599559B2, “CD1d-ligand-compound-containing liposome preparation having improved pharmacokinetics” (REGiMMUNE Corporation, priority 2020, dated 2026).

The nature of the data set: pharmacokinetics in human clinical trials, plasma KRN7000 by LC-MS/MS. Format: in vivo. The note with it: patients; for Cmax / AUC(0-t): plasma, iv. The method, then: In a phase I clinical trial, RGI-2001-001 was administered intravenously at a dose of 100 μg/kg as KRN7000 within 30 minutes after transplantation to six patients who had received hematopoietic stem cell transplantation. 2 mL of peripheral blood was collected before and 0.5, 1, 2, 4, 6, 8, 24, 48, 72, and 96 hours after transplantation, respectively, and plasma components were collected. KRN7000 in each plasma was separated and identified by liquid chromatography-mass spectrometry (LC-MS/MS).
Similarly, RGI-2001-003 was administered intravenously at a dose of 100 μg/kg as KRN7000 within 30 minutes after transplantation to seven patients who had received hematopoietic stem cell transplantation, and 2 mL of peripheral blood was collected before and 0.5, 2, 4, 6, 8, 24, and 48 hours after transplantation. Plasma components were collected, and plasma KRN7000 was separated and identified by LC-MS/M. These patients were treated with RGI-2001-003 at a dose of 100 μg/kg as KRN7000 intravenously once a week for 5 to 6 consecutive doses. For the administration on day 14, 2 mL of peripheral blood was collected before and 0.5 and 4 hours after administration, respectively, plasma components were collected, and plasma KRZN7000 was separated and identified by LC-MS/M. The NKT response and the number of activated Tregs (Ki-67+%) in patients treated with RGI-2001-003 administration were monitored over time.

[1] abbreviates: 100 ug/kg, plasma KRN7000 after RGI-2001-003 iv 100 μg/kg weekly, Day 0.

Where two headings read alike, the source gives them in different places.

`CCCCCCCCCCCCCCCCCCCCCCCCCC(=O)N[C@@H](CO[C@H]1OC(CO)[C@H](O)C(O)C1O)[C@H](O)[C@H](O)CCCCCCCCCCCCCC` (stereo partly drawn) [KRN7000, (2S,3S,4R)-1-o-(α-D-galactopyranosyl)-2-(N-hexacosanoylamino)-1,3,4-octadecanetriol]: under “100 μg/kg as KRN7000, plasma KRN7000 after RGI-2001-003 iv 100 μg/kg weekly, Day 14, read-out: Cmin”, the concentration at 14 day stood at 34.1 ng/mL. The compound further had a half-life under setting [1] of 35.8 h. Further, the AUC(0-inf) (100 ug/kg, plasma KRN7000 after RGI-2001-003 iv 100 μg/kg weekly, Day 0, read-out: *Est. AUC0-inf) was determined as 42500 ng·h/mL. Also, the maximum concentration (Cmax) by setting is: under setting [1], 881 ng/mL; (100 ug/kg, plasma KRN7000 after RGI-2001-003 iv 100 μg/kg weekly, Day 14) 570 ng/mL. Also, the AUC(0-t) reads like this: (100 ug/kg, plasma KRN7000 after RGI-2001-003 iv 100 μg/kg weekly, Day 0, read-out: AUC0-4) 3000 ng·h/mL; (100 ug/kg, plasma KRN7000 after RGI-2001-003 iv 100 μg/kg weekly, Day 14, read-out: AUC0-4) 1890 ng·h/mL.
